Source: US20250213542A1, “DEVICES AND METHODS FOR DELIVERING SYNERGISTIC ACTIVE AGENTS TO TARGET SITES” (IRRIMAX Corporation, priority 2023, published 2025)
Read-outs that look alike come from different tables or passages of the source.

Assays:
Assay type in all cases: cell-based
E. coli (ATCC BAA 1427) [1] = assay: Minimum inhibitory concentration determination, serial 2-fold dilution; conditions: Escherichia coli, BAA1427, 250 μg/mL (0.025% w/w), positive control, read-out: Average Growth Inhibition (%)
Method: (§1) The minimal inhibitory concentration (MIC, the minimum inhibitory concentration required for 90% growth reduction) of octenidine was determined against S. aureus (ATCC 6538), P. aeruginosa (ATCC 15442), and E. coli (ATCC BAA 1427) by serial 2-fold dilution experiments. A solution of chlorhexidine (0.025% w/w) was used as a positive control and comparator.

[2] = test system: P. aeruginosa (ATCC 15442); assay: as above; conditions: Pseudomonas aeruginosa, ATCC15442, read-out: Average Growth Inhibition (%)
Method: as §1

S. aureus (ATCC 6538) [3] = assay: as above; conditions: Staphylococcus aureus, ATCC6538, read-out: Average Growth Inhibition (%)
Method: as §1

E. coli (ATCC BAA 1427) [4] = assay: Minimal bactericidal concentration determination, serial 2-fold dilution
Method: (§2) The minimal bactericidal concentration (MBC) of octenidine dihydrochloride was determined against S. aureus (ATCC 6538), P. aeruginosa (ATCC 15442), and E. coli (ATCC BAA 1427) by serial 2-fold dilution experiments. A solution of chlorhexidine (0.025% w/w) was used as a positive control and comparator.

[5] = test system: P. aeruginosa (ATCC 15442); assay: as above; conditions: 250 μg/mL (0.025% w/w), positive control
Method: as §2

S. aureus (ATCC 6538) [6] = assay: as above; conditions: 250 μg/mL (0.025% w/w), positive control
Method: as §2

E. coli = assay: Chequerboard assay, FIC and synergy analysis; conditions: Escherichia coli
Method: (§3) Chlorhexidine gluconate (CHG) and octenidine dihydrochloride (OCT) were analyzed by chequerboard assay with each test organism to determine potential additive, synergistic, and antagonistic activity. The test organisms S. aureus, P. aeruginosa, and E. coli were tested at ranges of chlorhexidine gluconate (0.122-15.625 μg/ml, 1.25-160 μg/ml, and 0.125-16 μg/ml, respectively) and octenidine dihydrochloride (0.029-3.75 μg/mL, 0.029-3.75 μg/mL, and 0.029-3.75 μg/mL, respectively). FIC was calculated by the following Equation 2: […]

P. aeruginosa = assay: Chequerboard assay, FIC and synergy analysis; conditions: Pseudomonas aeruginosa
Method: as §3

S. aureus = assay: Chequerboard assay, FIC and synergy analysis; conditions: Staphylococcus aureus
Method: as §3

[7] = in presence of OCT, read-out: MIC of CHG in Presence of OCT

Which results are given for N=C(NCCCCCCNC(=N)NC(=N)Nc1ccc(Cl)cc1)NC(=N)Nc1ccc(Cl)cc1 [Chlorhexidine gluconate, 1-[amino-[6-[amino-[amino-(4-chlorophenyl)amino-methylidene]amino-methylidene]aminohexylimino]methyl]imino-N-(4-chlorophenyl)-methanediamine; (2R,3S,4R,5R)-2,3,4,5,6-pentahydroxyhexanoic acid.]?
inhibition at 250 µg/mL (E. coli (ATCC BAA 1427) [1]): 63%; inhibition at 250 µg/mL [2]: 81%; inhibition at 250 µg/mL (S. aureus (ATCC 6538) [3]): 121%; CFU/mL (E. coli (ATCC BAA 1427) [4]): 0 CFU/mL; Number of Colonies (E. coli (ATCC BAA 1427) [4]): 0; Number of Colonies (E. coli (ATCC BAA 1427) [4]; E. coli (ATCC BAA 1427), 250 μg/mL (0.025% w/w), positive control): no colonies; CFU/mL [5]: 0 CFU/mL; Number of Colonies [5]: 0; Number of Colonies ([5]; listed as chlorhexidine): no colonies; CFU/mL (S. aureus (ATCC 6538) [6]): 0 CFU/mL; Number of Colonies (S. aureus (ATCC 6538) [6]): 0; Number of Colonies (S. aureus (ATCC 6538) [6]; listed as chlorhexidine): no colonies; MIC (E. coli; [7]): 8 µg/mL; MIC (E. coli; read-out: MIC of CHG Alone): 16 µg/mL; MIC (P. aeruginosa; read-out: MIC of CHG Alone (μg/mL)): 32 µg/mL; MIC (P. aeruginosa; read-out: MIC of CHG in Presence of OCT (μg/mL)): 16 µg/mL; MIC (S. aureus; [7]): 2 µg/mL; MIC (S. aureus; read-out: MIC of CHG Alone): 4 µg/mL
